Columns and labels:
Format in all cases: cell-based
[1] = system: Human mesenchymal stem cells (hMSCs); experiment: Test Example 2: ALP activity of human mesenchymal stem cells; details: serum-free medium, compound A 1 μM with rhBMP-4 50 ng/ml
Description: After the respective cells were cultured for 9 days, a degree of progression of bone differentiation was examined by staining with an alkaline phosphatase (ALP) staining kit #85-3R (Sigma). […] Quantitative analysis of an ALP activity was conducted in the same manner as in Test Example 1. Accumulation of calcium was measured through visualization by the von Kossa method. That is, the respective cells were immobilized with a phosphate buffered saline (PBS) containing 3% glutaraldehyde, and washed with PBS and with distilled water. The immobilized cells were reacted with 2.5% silver nitrate for 60 minutes while applying light, then washed, and developed with 0.5% hydroquinone for 2 minutes. Excess silver was washed away with a 5% sodium thiosulfate solution.

C2C12 cells [2] = experiment: Test Example 1: bone differentiation of C2C12 cells, alkaline phosphatase (ALP) staining and ALP activity; details: 9 days
Description: After the respective cells were cultured for 9 days, a degree of progression of bone differentiation was examined by staining with an alkaline phosphatase (ALP) staining kit #85-3R (Sigma). Quantitative analysis of an ALP activity was conducted according to the Fujii et al. method (e.g., see Fujii M et al, “Mol Biol Cell.” published by American Society for Cell Biology (U.S.A.), 1999, vol. 10, p. 3801-3813] by using a Sigma Fast p-nitrophenyl phosphate tablet set. A protein concentration of each extract was measured by a DC protein assay (Bio-Rad) using a bovine serum albumin as a standard substance.

[3] = system: Human mesenchymal stem cells (hMSCs); experiment: Test Example 2: calcium accumulation of human mesenchymal stem cells by the von Kossa method; details: serum-free medium, compound A 1 μM with rhBMP-4 50 ng/ml
Description: Quantitative analysis of an ALP activity was conducted in the same manner as in Test Example 1. Accumulation of calcium was measured through visualization by the von Kossa method. That is, the respective cells were immobilized with a phosphate buffered saline (PBS) containing 3% glutaraldehyde, and washed with PBS and with distilled water. The immobilized cells were reacted with 2.5% silver nitrate for 60 minutes while applying light, then washed, and developed with 0.5% hydroquinone for 2 minutes. Excess silver was washed away with a 5% sodium thiosulfate solution.

C2C12 cells [4] = experiment: Test Example 4: influence of serum (FBS) concentration on ALP activity of C2C12 cells; details: compound A 1 μM, rhBMP-4 50 ng/ml, FBS 2.5%, 5%, 10% or 20%, 9 days
Description: After the respective cells were cultured for 9 days, a degree of progression of bone differentiation was examined by staining with an alkaline phosphatase (ALP) staining kit #85-3R (Sigma). […] Regarding the respective cells, the ALP activity was measured in the same manner as in Test Example 1.

`NC(=O)c1ccc(-c2nc(-c3ccc4c(c3)OCO4)c(-c3ccccn3)[nH]2)cc1` [compound A, 4-(4-benzo[1,3]dioxol-5-yl-5-pyridin-2-yl-1H-imidazol-2-yl)benzamide] was tested, and the “increase in ALP activity induced with rhBMP-4” value [1] was “further enhanced”, the “activity of accelerating bone differentiation by stimulation of rhBMP-4 (ALP staining / ALP activity)” value (C2C12 cells [2]; compound A 1 μM with rhBMP-4 50 ng/ml, 5% fetal bovine serum) was “enhanced” and the “activity of accelerating bone differentiation of C2C12 cells (ALP staining)” value (C2C12 cells [2]; compound A (1 μM) alone, without rhBMP-4, 5% fetal bovine serum) was “not observed”. For the same compound, the “calcium accumulation induced with rhBMP-4 (von Kossa staining)” value [3] was “further enhanced” and the “activity to enhance the acceleration of osteogenesis (ALP staining / ALP activity) as a function of FBS concentration” value (C2C12 cells [4]) was “decreased with the increase in FBS concentration”.
